# Data as given in ChEMBL document CHEMBL1201862, “PubChem BioAssay data set” (2004).
# Active and inactive are the calls of the source.
# Assays:
# [1] = biological target: Matrix metalloproteinase-14 (Homo sapiens, UniProt P50281); experiment: Dose Response confirmation of uHTS hits for a small molecule inhibitors of MT1-MMP activation in a fluorescence assay set 2.; assay type: functional
# [2] = biological target: T1, Rac GTPase-activating protein 1 (Homo sapiens, UniProt Q9H0H5); experiment: MgcRacGAP GTPase-activating activity inhibitors, confirmation, biochemical, ADP Hunter fluorescence, primary and confirmatory (AID 624330); assay type: functional
# T1 sequence (Q9H0H5 whole entry): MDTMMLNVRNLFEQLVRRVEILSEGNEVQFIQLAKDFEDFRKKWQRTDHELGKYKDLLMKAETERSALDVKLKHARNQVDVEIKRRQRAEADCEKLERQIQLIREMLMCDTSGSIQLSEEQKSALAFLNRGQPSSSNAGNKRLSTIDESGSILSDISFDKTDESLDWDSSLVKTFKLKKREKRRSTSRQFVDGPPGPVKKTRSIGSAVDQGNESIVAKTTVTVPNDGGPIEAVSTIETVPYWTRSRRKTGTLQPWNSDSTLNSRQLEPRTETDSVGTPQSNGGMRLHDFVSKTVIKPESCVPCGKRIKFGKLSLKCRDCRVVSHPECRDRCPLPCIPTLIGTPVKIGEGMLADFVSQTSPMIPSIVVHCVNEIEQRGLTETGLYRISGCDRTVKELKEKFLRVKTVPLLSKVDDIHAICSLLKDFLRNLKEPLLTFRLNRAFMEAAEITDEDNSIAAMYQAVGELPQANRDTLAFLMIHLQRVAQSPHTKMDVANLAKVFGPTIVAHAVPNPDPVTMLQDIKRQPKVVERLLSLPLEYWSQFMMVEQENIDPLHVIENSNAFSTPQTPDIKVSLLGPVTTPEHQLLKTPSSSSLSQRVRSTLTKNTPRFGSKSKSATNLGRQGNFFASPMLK
# [3] = biological target: ATP-dependent translocase ABCB1 (Homo sapiens, UniProt P08183); experiment: ABCB1 efflux pump inhibitor potency, dose response, Jurkat-DNR cells, JC-1, flow cytometry (AID 1689); assay type: functional
# Sequence of ATP-dependent translocase ABCB1 (P08183 whole entry): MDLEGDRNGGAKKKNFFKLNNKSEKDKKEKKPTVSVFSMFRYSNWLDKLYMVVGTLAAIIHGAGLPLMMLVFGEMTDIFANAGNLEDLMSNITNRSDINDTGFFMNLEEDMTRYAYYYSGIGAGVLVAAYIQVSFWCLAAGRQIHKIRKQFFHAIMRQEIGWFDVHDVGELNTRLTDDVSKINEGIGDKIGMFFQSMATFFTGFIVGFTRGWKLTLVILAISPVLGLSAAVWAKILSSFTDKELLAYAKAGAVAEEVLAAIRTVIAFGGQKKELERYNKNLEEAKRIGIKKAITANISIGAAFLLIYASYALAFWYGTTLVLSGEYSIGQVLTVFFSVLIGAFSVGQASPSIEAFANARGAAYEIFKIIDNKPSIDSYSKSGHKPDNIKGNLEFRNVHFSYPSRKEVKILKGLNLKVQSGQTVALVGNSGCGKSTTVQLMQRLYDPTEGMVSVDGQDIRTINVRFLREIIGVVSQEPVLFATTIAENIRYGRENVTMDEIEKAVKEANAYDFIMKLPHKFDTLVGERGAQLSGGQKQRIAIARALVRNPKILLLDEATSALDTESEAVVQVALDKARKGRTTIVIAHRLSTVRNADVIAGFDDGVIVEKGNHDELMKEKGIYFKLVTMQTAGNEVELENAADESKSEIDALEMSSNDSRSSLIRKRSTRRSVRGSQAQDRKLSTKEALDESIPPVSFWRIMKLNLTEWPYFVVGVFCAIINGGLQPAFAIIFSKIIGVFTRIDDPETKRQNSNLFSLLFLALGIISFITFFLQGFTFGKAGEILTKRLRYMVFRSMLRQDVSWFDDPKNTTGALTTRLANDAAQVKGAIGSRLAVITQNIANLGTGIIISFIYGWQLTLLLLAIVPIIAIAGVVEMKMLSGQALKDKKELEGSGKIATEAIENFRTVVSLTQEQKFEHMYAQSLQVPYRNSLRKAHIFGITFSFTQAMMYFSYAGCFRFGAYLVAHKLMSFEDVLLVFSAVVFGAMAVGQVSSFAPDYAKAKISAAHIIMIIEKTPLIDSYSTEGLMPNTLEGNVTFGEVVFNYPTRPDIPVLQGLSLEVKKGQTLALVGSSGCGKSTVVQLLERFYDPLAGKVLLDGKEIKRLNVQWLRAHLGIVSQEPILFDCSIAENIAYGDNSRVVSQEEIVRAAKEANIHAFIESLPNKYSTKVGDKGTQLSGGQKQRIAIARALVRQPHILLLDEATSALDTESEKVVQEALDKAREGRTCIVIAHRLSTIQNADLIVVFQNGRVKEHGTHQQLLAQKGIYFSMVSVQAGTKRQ
# [4] = Luminescence Cell-Based Dose Response HTS to Identify Activators of Luciferase Translation or Activity in H4 […] Cells. [Related pubchem assays: 1829 (Project Summary), 1814 (Primary HTS)]; assay type: functional
# [5] = biological target: T2, Protein skinhead-1 (Caenorhabditis elegans, UniProt P34707); assay type: functional
# T2 sequence (P34707 whole entry): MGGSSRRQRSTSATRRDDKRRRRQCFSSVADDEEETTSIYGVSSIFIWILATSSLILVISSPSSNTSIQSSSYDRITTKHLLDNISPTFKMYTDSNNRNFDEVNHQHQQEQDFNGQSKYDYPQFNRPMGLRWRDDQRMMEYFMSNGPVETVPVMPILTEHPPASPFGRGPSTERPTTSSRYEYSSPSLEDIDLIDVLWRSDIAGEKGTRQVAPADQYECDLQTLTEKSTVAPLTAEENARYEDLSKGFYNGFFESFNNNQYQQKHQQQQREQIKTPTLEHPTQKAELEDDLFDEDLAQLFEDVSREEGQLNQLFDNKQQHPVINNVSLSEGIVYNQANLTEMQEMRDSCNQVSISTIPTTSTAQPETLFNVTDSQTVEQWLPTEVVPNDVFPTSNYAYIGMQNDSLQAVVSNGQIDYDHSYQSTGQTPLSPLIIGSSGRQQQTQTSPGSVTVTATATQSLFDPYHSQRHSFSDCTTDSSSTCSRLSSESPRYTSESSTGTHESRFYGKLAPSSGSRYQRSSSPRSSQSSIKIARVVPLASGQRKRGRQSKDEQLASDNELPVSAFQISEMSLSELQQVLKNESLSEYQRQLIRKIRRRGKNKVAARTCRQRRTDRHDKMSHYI
# [6] = Luminescence Cell-Based Dose Confirmation to Identify Activators of 5'UTR Stem-Loop Driven Alpha-Synuclein mRNA Translation in H4 Neuroglioblastoma Cells. [Related pubchem assays: 1829 (Project Summary), 1814 (Primary HTS)]; assay type: functional
# [7] = biological target: Broad substrate specificity ATP-binding cassette transporter ABCG2 (Homo sapiens, UniProt Q9UNQ0); experiment: ABCG2 efflux pump inhibitors, dose response, Ig-MXP3 cells, flow cytometry (AID 1690); assay type: functional
# Sequence of Broad substrate specificity ATP-binding cassette transporter ABCG2 (Q9UNQ0 whole entry): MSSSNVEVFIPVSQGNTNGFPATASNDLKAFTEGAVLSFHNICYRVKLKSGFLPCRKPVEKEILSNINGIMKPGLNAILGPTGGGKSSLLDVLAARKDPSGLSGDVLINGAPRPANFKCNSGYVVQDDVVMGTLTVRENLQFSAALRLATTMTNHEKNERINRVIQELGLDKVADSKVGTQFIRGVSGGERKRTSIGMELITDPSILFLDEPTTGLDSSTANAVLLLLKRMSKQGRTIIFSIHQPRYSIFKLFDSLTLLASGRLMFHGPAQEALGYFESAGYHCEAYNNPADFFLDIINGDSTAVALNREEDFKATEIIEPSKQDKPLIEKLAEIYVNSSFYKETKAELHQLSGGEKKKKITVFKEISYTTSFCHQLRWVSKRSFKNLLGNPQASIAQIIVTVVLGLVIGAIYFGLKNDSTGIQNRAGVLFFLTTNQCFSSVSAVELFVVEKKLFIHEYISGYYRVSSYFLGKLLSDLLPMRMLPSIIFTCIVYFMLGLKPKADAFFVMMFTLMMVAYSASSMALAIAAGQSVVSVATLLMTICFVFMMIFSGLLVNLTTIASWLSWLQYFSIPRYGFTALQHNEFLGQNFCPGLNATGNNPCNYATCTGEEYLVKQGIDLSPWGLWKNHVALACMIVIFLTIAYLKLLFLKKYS
# [8] = tested on: H4; experiment: Luminescence Cell-Based Dose Response HTS to Identify Activators of 5'UTR Stem-Loop Driven Prion Protein mRNA Translation in H4 Neuroglioblastoma Cells. [Related pubchem assays: 1829 (Project Summary), 1814 (Primary HTS)]; assay type: functional; conditions: Homo sapiens
# [9] = Luminescence Cell-Based Dose Response to Identify Activators of 5'UTR Stem-Loop Driven Prion Protein mRNA Translation in H4-C Neuroglioblastoma Cells. [Related pubchem assays: 1829 (Project Summary), 1814 (Primary HTS)]; assay type: functional
# [10] = Luminescence Cell-Based Dose Response to Identify Activators of Luciferase Translation or Activity in H4-C Neuroglioblastoma Cells. [Related pubchem assays: 1829 (Project Summary), 1814 (Primary HTS)]; assay type: functional
# [11] = tested on: HEK293; experiment: cells; conditions: Homo sapiens
# [12] = biological target: FAD-linked sulfhydryl oxidase ALR (Homo sapiens, UniProt P55789); experiment: inhibitors of human ALR sulfhydryl oxidase, dose response, biochemical, H2O2 detection, luminescence, cherry-pick (AID 493248)
# Sequence of FAD-linked sulfhydryl oxidase ALR (P55789 whole entry): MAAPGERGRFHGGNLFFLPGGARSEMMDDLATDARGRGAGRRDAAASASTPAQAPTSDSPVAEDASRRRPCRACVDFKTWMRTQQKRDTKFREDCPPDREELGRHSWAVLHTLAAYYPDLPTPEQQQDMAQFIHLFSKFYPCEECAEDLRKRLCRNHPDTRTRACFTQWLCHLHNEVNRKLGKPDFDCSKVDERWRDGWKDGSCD
# [13] = tested on: HEK293; experiment: cells; conditions: Homo sapiens; remark: listed apart in the source
# [14] = biological target: ATP-binding cassette sub-family B member 6 (Homo sapiens, UniProt Q9NP58); experiment: ABCB6 transporter inhibitors, porphyrin accumulation, dose response, flow cytometry, K562-ABCB6 cells, cherry pick 02 (AID 624487); assay type: functional; conditions: read-out: EC50_MICROM
# Sequence of ATP-binding cassette sub-family B member 6 (Q9NP58 whole entry, the tested form may be a part): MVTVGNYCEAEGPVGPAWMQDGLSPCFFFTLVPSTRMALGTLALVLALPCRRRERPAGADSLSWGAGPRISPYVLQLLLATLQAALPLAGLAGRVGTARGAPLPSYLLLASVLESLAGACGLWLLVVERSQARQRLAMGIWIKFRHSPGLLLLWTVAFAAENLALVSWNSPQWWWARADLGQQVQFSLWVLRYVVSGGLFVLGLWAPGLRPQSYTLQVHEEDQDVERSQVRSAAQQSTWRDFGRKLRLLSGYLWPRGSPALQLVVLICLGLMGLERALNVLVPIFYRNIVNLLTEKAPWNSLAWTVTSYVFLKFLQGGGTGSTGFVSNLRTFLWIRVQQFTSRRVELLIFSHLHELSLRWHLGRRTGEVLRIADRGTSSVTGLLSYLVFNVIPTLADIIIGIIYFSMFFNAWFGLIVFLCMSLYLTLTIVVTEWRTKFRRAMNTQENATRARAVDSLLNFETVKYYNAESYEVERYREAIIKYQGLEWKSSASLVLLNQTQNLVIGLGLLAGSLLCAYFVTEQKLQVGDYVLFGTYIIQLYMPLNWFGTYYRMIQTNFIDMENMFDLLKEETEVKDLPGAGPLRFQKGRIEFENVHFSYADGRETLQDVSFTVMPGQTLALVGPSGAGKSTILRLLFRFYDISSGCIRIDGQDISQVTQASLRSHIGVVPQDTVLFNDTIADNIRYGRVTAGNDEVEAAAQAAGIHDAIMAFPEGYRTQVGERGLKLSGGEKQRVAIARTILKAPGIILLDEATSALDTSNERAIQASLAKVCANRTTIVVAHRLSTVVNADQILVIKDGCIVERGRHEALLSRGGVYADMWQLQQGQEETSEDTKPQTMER
# [15] = Fluorescence-based cell-based high throughput dose response assay for inhibitors of the interaction of nucleotide-binding oligomerization domain containing 2 (NOD2) and the receptor-interacting serine-threonine kinase 2 (RIPK2).; assay type: functional; conditions: Homo sapiens
# [16] = biological target: T3, Heat shock factor protein 1 (Mus musculus, UniProt P38532); experiment: HSF1 potentiators in luciferase reporter cells, confirmation, cell-based, NIH3T3, luminescence, dose retest (AID 435004); assay type: functional;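 note: stress induced by proteasome inhibitor MG132 added 30 min after compound; luciferase reporter driven by HSF1 response element in NIH3T3 cells; actives raise luminescence as potentiators of the MG132 stress response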
# T3 sequence (P38532 whole entry): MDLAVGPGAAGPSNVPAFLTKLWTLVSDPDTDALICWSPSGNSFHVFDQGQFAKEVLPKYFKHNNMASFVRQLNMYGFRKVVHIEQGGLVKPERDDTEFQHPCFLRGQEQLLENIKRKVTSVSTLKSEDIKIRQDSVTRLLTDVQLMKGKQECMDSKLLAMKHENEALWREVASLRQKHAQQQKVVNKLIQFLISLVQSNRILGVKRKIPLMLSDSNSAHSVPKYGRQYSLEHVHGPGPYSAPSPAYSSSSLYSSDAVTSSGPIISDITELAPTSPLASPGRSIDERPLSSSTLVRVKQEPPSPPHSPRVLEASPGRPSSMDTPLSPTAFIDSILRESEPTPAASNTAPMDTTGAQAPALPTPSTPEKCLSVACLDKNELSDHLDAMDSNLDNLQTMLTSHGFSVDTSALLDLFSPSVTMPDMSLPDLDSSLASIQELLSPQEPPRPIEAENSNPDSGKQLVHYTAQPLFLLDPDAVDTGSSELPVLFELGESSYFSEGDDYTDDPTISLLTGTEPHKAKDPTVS
# [17] = control 3'UTR Renilla luciferase suppression, dose response, counter-screen for Shn3 inhibitor project, cell-based, Clone20-Shn3RL, cherry-picked (AID 624133); assay type: functional
# [18] = biological target: T4, Protein RecA (Mycobacterium tuberculosis, UniProt P9WHJ3); experiment: Fluorescence Cell-Free Homogeneous Dose Retest to Identify Inhibitors of RecA-Intein Splicing Activity. [Related pubchem assays (depositor defined):AID2097, AID2223, AID489010, AID492950]; assay type: functional
# T4 sequence (P9WHJ3 whole entry): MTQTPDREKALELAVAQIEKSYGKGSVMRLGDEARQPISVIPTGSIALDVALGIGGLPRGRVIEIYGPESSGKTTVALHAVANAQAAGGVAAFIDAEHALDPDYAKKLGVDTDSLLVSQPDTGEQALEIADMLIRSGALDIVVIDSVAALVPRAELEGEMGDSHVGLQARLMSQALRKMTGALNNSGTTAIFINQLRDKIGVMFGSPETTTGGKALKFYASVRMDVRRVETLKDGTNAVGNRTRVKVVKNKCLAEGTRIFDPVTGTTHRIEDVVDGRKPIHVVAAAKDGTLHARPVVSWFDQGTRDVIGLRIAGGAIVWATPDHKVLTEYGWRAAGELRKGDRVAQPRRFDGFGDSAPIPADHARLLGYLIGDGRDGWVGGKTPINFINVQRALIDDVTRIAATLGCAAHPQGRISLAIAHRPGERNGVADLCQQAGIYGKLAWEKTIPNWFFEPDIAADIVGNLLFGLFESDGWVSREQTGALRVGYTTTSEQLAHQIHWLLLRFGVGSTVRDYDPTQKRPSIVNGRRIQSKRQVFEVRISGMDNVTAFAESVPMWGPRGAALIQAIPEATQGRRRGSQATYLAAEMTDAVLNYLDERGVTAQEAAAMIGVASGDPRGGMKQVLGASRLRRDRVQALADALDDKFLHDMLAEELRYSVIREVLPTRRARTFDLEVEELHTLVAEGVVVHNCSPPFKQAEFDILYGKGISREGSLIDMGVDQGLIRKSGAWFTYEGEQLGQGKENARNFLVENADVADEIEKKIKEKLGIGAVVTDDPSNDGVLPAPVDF
# [19] = biological target: T5, Replicative DNA helicase DnaB (Mycobacterium tuberculosis, UniProt P9WMR3); experiment: DnaB intein splicing inhibitors, dose response, biochemical, cell-free fluorescence (AID 449749); assay type: functional
# T5 sequence (P9WMR3 whole entry): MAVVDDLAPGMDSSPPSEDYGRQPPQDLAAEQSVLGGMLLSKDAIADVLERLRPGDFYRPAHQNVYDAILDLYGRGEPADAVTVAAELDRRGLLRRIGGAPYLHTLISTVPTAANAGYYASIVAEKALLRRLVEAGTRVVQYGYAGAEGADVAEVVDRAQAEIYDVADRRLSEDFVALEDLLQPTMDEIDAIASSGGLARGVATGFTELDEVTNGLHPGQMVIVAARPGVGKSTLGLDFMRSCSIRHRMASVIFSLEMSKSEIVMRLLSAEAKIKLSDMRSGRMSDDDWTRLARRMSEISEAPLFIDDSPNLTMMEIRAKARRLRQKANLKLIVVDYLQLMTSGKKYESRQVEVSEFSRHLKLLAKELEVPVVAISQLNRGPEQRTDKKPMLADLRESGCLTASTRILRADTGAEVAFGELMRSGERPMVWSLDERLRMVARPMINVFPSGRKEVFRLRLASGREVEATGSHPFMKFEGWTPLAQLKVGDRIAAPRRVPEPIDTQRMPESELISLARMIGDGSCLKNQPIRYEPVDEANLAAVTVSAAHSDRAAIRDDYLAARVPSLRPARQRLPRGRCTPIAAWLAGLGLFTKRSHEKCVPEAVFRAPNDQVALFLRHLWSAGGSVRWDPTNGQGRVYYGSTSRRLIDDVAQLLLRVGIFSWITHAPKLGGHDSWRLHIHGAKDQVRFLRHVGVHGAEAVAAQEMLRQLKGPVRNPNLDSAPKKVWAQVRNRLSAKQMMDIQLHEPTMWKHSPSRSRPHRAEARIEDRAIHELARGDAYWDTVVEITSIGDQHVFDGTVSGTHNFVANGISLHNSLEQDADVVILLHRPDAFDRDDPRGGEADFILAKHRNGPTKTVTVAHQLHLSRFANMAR
# [20] = Shn3 3'UTR reporter inhibitors, dose response, cell-based, Clone20 osteoblasts, firefly luciferase, cherry-picked (AID 624132); assay type: functional;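 note: firefly luciferase luminescence from reporter carrying the Shn3 3'UTR in osteoblasts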
# [21] = HepG2 cell cytotoxicity, dose response, cytotoxicity control for Shn3 inhibitor project, CellTiter-Glo, cherry-picked (AID 624134); assay type: functional, cell-based
smiles,measurement,setting,value
CN(C)/C=C/c1oc2ccc(O)cc2c1[N+](=O)[O-],IC50,[1],26.2 µM (inactive)
same,IC50,[2],14 µM (active)
O=[N+]([O-])c1ccccc1-c1nc(-c2ccc(Br)o2)no1,EC50,[3],28.2 µM (inactive)
same,EC50,[4],< 0.1 µM (active)
same,IC50,[5],69.1 µM (inactive)
same,EC50,[6],0.252 µM (active)
same,EC50,[7],4.88 µM (active)
same,EC50,[8],> 120 µM (not active)
same,EC50,[9],0.302 µM (active)
same,EC50,[10],0.364 µM (active)
Cc1cccc(C)c1NC(=O)c1nc(S(=O)(=O)Cc2ccccc2)ncc1Cl,EC50,[11],> 59.6 µM (inactive)
same,AC50,[12],1.74 µM (active)
same,EC50,[13],> 59.6 µM (inactive)
same,EC50,[14],38.1 µM (active)
same,IC50,[15],4.11 µM (active)
same,EC50,[16],9.13 µM (active)
same,AC50,[17],10.6 µM (active)
same,EC50,[18],6.63 µM (active)
same,AC50,[19],4.34 µM (active)
same,AC50,[20],4.33 µM (active)
same,AC50,[21],22.9 µM (active)
